Assay results: patent EP4574817A1 (LoQus23 Therapeutics Limited, priority 2023, dated 2025)

Molecular target: T1, MutSβ (Homo sapiens, UniProt P20585+P43246)
T1 construct: purchased AMRI
Experiment: MutSβ ADP Glo Assay
Format: biochemical
Conditions: 20nM MutSβ, 30nM CAG DNA, 25 µM ATP, 2 hours at room temperature
Method: Biological Example A - MutSβ Assay
• MutSβ (supplied by AMRI) stored at -70°C • ADP Glo Kinase Assay Kit (Promega: V9102) stored at -20°C • ATP (supplied within the ADP Glo Kit) stored at -20°C • 1M KCI (Sigma Aldrich: P9333) stored at 2-8°C • 1 M HEPES pH 7.5 (Gibco: M15630-080) stored at 2-8°C • 1M MgCl2 (Sigma Aldrich: M1028-100mL) stored at 2-8°C • Tween-20 (Sigma Aldrich: P1379) (10% solution) stored at 2-8°C • 500mM DTT (Sigma Aldrich: 10197777001) stored at -20°C • CAG loop DNA for MutSβ (made in house) stored at -20°C • MilliQ water stored at room temperature
• 1. Prepare the buffer fresh each day • 2. Take the enzyme from the freezer, thaw in room temperature water and centrifuge at 13,000 rpm for 10 minutes at 2-8C, then make up enzyme and ATP stocks • 3. Quality Control the multidrop head to a %CV of <2% • 4. Add 3µL of 33.34nM MutSβ and 50.01nM CAG looped DNA solution […] to each well in columns 1 and 3-23 of the plate • 5. Pre-incubate the MutSβ and buffer mix for 10 minutes with the compounds • 6. Wash the multidrop head through with MilliQ water (for at least 30 seconds) • 7. Add 3µL of MutSβ Assay buffer (without enzyme) to columns 2 and 24 for the vehicle controls • 8. Wash the multidrop head through with MilliQ water (for at least 30 seconds) • 9. Add 2µL of 62.5µM ATP to each well of the whole plate, then wash with MilliQ water (for a minimum of 30 seconds) • 10. Centrifuge plate for 1 minute at 1000 rpm • 11. Incubate for 2 hours at room temperature • 12. Add 5µL of ADP Glo reagent to each well of the whole plate and wash the multidrop head with MilliQ water (for a minimum of 30 seconds) • 13. Incubate for 40 minutes at room temperature (minimum requirement) • 14. Add 10µL of Kinase Detection Reagent to each well of the whole plate • 15. Wash the multidrop head with MilliQ water more than 1 minute and then dry • 16. Remove the head and put the cover back on for overnight storage • 17. Incubate for 30 minutes at room temperature (minimum requirement) • 18. Read on a microplate reader

T1 sequence (P43246 whole entry): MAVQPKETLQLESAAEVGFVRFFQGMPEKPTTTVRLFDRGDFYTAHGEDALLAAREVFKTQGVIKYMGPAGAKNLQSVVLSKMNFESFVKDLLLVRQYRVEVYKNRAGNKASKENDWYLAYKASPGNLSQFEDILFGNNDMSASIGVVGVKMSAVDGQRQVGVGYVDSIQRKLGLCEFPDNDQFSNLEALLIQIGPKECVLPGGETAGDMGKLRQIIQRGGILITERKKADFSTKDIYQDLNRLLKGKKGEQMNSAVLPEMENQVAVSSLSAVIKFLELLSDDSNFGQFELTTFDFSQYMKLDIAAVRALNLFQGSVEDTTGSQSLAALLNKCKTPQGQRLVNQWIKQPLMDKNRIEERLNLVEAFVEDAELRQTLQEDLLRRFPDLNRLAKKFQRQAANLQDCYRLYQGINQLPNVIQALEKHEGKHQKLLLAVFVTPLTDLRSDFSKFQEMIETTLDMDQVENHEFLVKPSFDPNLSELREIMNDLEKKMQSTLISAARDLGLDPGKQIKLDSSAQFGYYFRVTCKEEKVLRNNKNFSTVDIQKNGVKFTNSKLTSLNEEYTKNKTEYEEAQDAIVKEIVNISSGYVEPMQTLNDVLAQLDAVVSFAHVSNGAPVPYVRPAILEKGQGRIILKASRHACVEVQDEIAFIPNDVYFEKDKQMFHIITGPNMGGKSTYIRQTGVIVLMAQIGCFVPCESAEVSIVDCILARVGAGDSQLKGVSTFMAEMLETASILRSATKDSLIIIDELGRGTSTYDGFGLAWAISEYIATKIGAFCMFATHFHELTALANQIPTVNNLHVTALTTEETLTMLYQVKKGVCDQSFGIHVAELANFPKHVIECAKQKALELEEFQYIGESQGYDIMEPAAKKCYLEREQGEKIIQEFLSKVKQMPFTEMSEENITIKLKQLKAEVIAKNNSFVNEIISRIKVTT
T1 sequence (P20585 whole entry): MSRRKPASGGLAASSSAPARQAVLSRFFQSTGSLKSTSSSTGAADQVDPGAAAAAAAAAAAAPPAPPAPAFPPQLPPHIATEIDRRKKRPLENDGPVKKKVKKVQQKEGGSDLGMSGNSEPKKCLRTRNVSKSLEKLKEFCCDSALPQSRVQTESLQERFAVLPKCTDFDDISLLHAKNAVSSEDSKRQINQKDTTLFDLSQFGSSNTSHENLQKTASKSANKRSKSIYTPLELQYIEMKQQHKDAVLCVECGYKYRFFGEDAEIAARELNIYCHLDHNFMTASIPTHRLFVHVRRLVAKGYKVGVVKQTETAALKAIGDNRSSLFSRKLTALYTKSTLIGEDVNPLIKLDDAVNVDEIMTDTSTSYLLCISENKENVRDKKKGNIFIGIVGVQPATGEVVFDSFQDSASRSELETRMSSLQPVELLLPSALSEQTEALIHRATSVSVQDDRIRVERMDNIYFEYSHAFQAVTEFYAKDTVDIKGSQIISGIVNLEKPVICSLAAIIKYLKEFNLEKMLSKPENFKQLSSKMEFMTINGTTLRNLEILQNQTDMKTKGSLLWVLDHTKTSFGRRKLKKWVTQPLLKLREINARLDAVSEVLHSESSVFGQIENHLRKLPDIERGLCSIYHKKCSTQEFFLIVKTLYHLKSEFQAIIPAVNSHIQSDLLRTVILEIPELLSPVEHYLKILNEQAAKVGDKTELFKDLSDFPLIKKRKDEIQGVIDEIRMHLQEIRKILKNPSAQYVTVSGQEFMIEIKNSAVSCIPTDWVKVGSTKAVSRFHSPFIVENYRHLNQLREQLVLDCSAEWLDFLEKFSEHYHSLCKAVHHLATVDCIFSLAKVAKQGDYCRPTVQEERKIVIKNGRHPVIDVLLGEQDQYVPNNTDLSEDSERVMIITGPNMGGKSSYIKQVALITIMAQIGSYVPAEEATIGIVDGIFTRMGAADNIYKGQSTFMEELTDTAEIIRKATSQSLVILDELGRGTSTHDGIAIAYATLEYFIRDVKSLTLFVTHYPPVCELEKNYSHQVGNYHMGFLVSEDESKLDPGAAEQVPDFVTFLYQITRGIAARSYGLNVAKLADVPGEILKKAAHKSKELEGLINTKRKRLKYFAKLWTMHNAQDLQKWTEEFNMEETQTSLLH

IC50 [µM]	Molecule
1 to 10	Cc1ccc(Cc2sc(NC(=O)COS(N)(=O)=O)nc2C)cc1 [Example 3, 2-((4-methyl-5-(4-methylbenzyl)thiazol-2-yl)amino)-2-oxoethyl sulfamate]
0.5 to 1	Cc1nc(NC(=O)COS(=O)(=O)N(C)C)sc1Cc1ccc(F)cc1 [Example 4, 2-((5-(4-fluorobenzyl)-4-methylthiazol-2-yl)amino)-2-oxoethyl dimethylsulfamate]
1 to 10	CNS(=O)(=O)OCC(=O)Nc1nc(C)c(Cc2ccc3ccccc3c2)s1 [Example 5, 2-((4-methyl-5-(naphthalen-2-ylmethyl)thiazol-2-yl)amino)-2-oxoethyl methylsulfamate]
1 to 10	Cc1ccc(Cc2sc(NC(=O)COS(=O)(=O)NC3CC3)nc2C)cc1 [Example 6, 2-((4-methyl-5-(4-methylbenzyl)thiazol-2-yl)amino)-2-oxoethyl cyclopropylsulfamate]
≤ 0.5	CNS(=O)(=O)OCC(=O)Nc1nc(C)c(Cc2ccc(F)c(Cl)c2)s1 [Example 7, 2-((5-(3-chloro-4-fluorobenzyl)-4-methylthiazol-2-yl)amino)-2-oxoethyl methylsulfamate]
0.5 to 1	COCCNS(=O)(=O)OCC(=O)Nc1nc(C)c(Cc2cccc(Cl)c2)s1 [Example 8, 2-((5-(3-chlorobenzyl)-4-methylthiazol-2-yl)amino)-2-oxoethyl (2-methoxyethyl)sulfamate]
0.5 to 1	Cc1ccc(Cc2sc(NC(=O)COS(=O)(=O)N3CCOCC3)nc2C)cc1 [Example 9, 2-((4-methyl-5-(4-methylbenzyl)thiazol-2-yl)amino)-2-oxoethyl morpholine-4-sulfonate]
10 to 50	CNS(=O)(=O)OCC(=O)Nc1nc(C)c(Cc2ccccc2C)s1 [Example 11, 2-((4-methyl-5-(2-methylbenzyl)thiazol-2-yl)amino)-2-oxoethyl methylsulfamate]
1 to 10	Cc1nc(NC(=O)COS(=O)(=O)N(C)C)sc1Cc1cccc(C(F)(F)F)c1 [Example 13, 2-((4-methyl-5-(3-(trifluoromethyl)benzyl)thiazol-2-yl)amino)-2-oxoethyl dimethylsulfamate]
1 to 10	CNS(=O)(=O)OCC(=O)Nc1nc(C)c(Cc2ccccc2Cl)s1 [Example 16, 2-((5-(2-chlorobenzyl)-4-methylthiazol-2-yl)amino)-2-oxoethyl methylsulfamate]
1 to 10	CCc1nc(NC(=O)COS(=O)(=O)NC)sc1Cc1ccc(C)cc1 [Example 18, 2-((4-ethyl-5-(4-methylbenzyl)thiazol-2-yl)amino)-2-oxoethyl methylsulfamate]
1 to 10	Cc1ccc(Cc2sc(NC(=O)COS(=O)(=O)N(C)C)nc2C)cc1 [Example 20, 2-((4-methyl-5-(4-methylbenzyl)thiazol-2-yl)amino)-2-oxoethyl dimethylsulfamate]
0.5 to 1	Cc1ccc(Cc2sc(NC(=O)COS(=O)(=O)N3CC(F)C3)nc2C)cc1 [Example 21, 2-((4-methyl-5-(4-methylbenzyl)thiazol-2-yl)amino)-2-oxoethyl 3-fluoroazetidine-1-sulfonate]
1 to 10	Cc1nc(NC(=O)COS(=O)(=O)N(C)C)sc1Cc1ccccc1F [Example 22, 2-((5-(2-fluorobenzyl)-4-methylthiazol-2-yl)amino)-2-oxoethyl dimethylsulfamate]
1 to 10	Cc1ccc(Cc2sc(NC(=O)COS(=O)(=O)NC(C)C)nc2C)cc1 [Example 23, 2-((4-methyl-5-(4-methylbenzyl)thiazol-2-yl)amino)-2-oxoethyl isopropylsulfamate]
1 to 10	CNS(=O)(=O)OCC(=O)Nc1nc(C)c(Cc2cccc(C)c2)s1 [Example 24, 2-((4-methyl-5-(3-methylbenzyl)thiazol-2-yl)amino)-2-oxoethyl methylsulfamate]
≤ 0.5	Cc1ccc(Cc2sc(NC(=O)COS(=O)(=O)N3CCC3)nc2C)cc1 [Example 25, 2-((4-methyl-5-(4-methylbenzyl)thiazol-2-yl)amino)-2-oxoethyl azetidine-1-sulfonate]
1 to 10	CNS(=O)(=O)OCC(=O)Nc1nc(C)c(Cc2ccc(OC)cc2)s1 [Example 26, 2-((5-(4-methoxybenzyl)-4-methylthiazol-2-yl)amino)-2-oxoethyl methylsulfamate]

IC50 [µM]	Molecule
1 to 10	Cc1nc(NC(=O)COS(=O)(=O)N(C)C)sc1Cc1ccccc1 [Example 28, 2-((5-benzyl-4-methylthiazol-2-yl)amino)-2-oxoethyl dimethylsulfamate]
0.5 to 1	COCCN(C)S(=O)(=O)OCC(=O)Nc1nc(C)c(Cc2ccc(C)cc2)s1 [Example 29, 2-((4-methyl-5-(4-methylbenzyl)thiazol-2-yl)amino)-2-oxoethyl (2-methoxyethyl)(methyl)sulfamate]
1 to 10	CNS(=O)(=O)OCC(=O)Nc1nc(C)c(Cc2ccc(Cl)cc2)s1 [Example 30, 2-((5-(4-chlorobenzyl)-4-methylthiazol-2-yl)amino)-2-oxoethyl methylsulfamate]
1 to 10	Cc1ccc(Cc2sc(NC(=O)COS(=O)(=O)N3CCCC3)nc2C)cc1 [Example 31, 2-((4-methyl-5-(4-methylbenzyl)thiazol-2-yl)amino)-2-oxoethyl pyrrolidine-1-sulfonate]
1 to 10	CNS(=O)(=O)OCC(=O)Nc1nc(C)c(Cc2ccc(C(F)(F)F)cc2)s1 [Example 32, 2-((4-methyl-5-(4-(trifluoromethyl)benzyl)thiazol-2-yl)amino)-2-oxoethyl methylsulfamate]
10 to 50	CNS(=O)(=O)OCC(=O)Nc1nc(C)c(Cc2ccc(C(C)C)cc2)s1 [Example 33, 2-((5-(4-isopropylbenzyl)-4-methylthiazol-2-yl)amino)-2-oxoethyl methylsulfamate]
10 to 50	Cc1nc(NC(=O)COS(=O)(=O)N(C)C)sc1CCc1ccccc1 [Example 35, 2-((4-methyl-5-phenethylthiazol-2-yl)amino)-2-oxoethyl dimethylsulfamate]
1 to 10	CNS(=O)(=O)OCC(=O)Nc1nc(C2CC2)c(Cc2ccc(C)cc2)s1 [Example 36, 2-((4-cyclopropyl-5-(4-methylbenzyl)thiazol-2-yl)amino)-2-oxoethyl methylsulfamate]
10 to 50	CNS(=O)(=O)OCC(=O)Nc1nc(C(C)C)c(Cc2ccc(C)cc2)s1 [Example 37, 2-((4-isopropyl-5-(4-methylbenzyl)thiazol-2-yl)amino)-2-oxoethyl methylsulfamate]
10 to 50	CNS(=O)(=O)OCC(=O)Nc1nc(C)c(CCc2ccc(Cl)cc2)s1 [Example 38, 2-((5-(4-chlorophenethyl)-4-methylthiazol-2-yl)amino)-2-oxoethyl methylsulfamate]
1 to 10	CCCNS(=O)(=O)OCC(=O)Nc1nc(C)c(Cc2ccc(C)cc2)s1 [Example 41, 2-((4-methyl-5-(4-methylbenzyl)thiazol-2-yl)amino)-2-oxoethyl propylsulfamate]
1 to 10	Cc1ccc(Cc2sc(NC(=O)COS(=O)(=O)N(C)Cc3ccccc3)nc2C)cc1 [Example 42, 2-((4-methyl-5-(4-methylbenzyl)thiazol-2-yl)amino)-2-oxoethyl benzyl(methyl)sulfamate]
10 to 50	Cc1ccc(Cc2sc(NC(=O)COS(=O)(=O)NC(C)(C)C)nc2C)cc1 [Example 43, 2-((4-methyl-5-(4-methylbenzyl)thiazol-2-yl)amino)-2-oxoethyl tert-butylsulfamate]
1 to 10	Cc1ccc(Cc2sc(NC(=O)COS(=O)(=O)NCc3ccccc3)nc2C)cc1 [Example 45, 2-((4-methyl-5-(4-methylbenzyl)thiazol-2-yl)amino)-2-oxoethyl benzylsulfamate]
1 to 10	CNS(=O)(=O)OCC(=O)Nc1nc(C)c(Cc2ccc(C)cc2)s1 [Example 47, 2-((4-methyl-5-(4-methylbenzyl)thiazol-2-yl)amino)-2-oxoethyl methylsulfamate]
10 to 50	CNS(=O)(=O)OCC(=O)Nc1nc(C)c(Cc2cccc3ccccc23)s1 [Example 48, 2-((4-methyl-5-(naphthalen-1-ylmethyl)thiazol-2-yl)amino)-2-oxoethyl methylsulfamate]
0.5 to 1	Cc1nc(NC(=O)COS(=O)(=O)NCCF)sc1Cc1cccc(Cl)c1 [Example 49, 2-((5-(3-chlorobenzyl)-4-methylthiazol-2-yl)amino)-2-oxoethyl (2-fluoroethyl)sulfamate]

Molecule	IC50 [µM]
2-((4-methyl-5-(4-methylbenzyl)thiazol-2-yl)amino)-2-oxoethyl isobutylsulfamate [Example 17]	10 to 50
CNS(=O)(=O)OCC(=O)Nc1nc(C(F)(F)F)c(Cc2ccc(C)cc2)s1 [Example 44]	1 to 10
